row,melting point [°C],Compound
1,249 to 251,O=C(O)C1Cc2c(c(Cl)cc3c(-c4cccs4)noc23)O1 (stereo not drawn)
2,169,Cc1ccc(S(=O)(=O)Oc2ccc(S(=O)(=O)c3c(C)cn4ccccc34)cc2)cc1
3,56 to 66,COc1ccc(S(=O)(=O)NCC(O)(Cn2cncn2)c2ccc(Cl)cc2Cl)cc1 (stereo not drawn)
4,198 to 200,CCCc1nc2c(N)nc3cc(Oc4cccc([N+](=O)[O-])c4)ccc3c2n1CC(C)C
5,112,CCc1noc(C(=NOC)c2ccccc2COc2cc(C)ccc2C)n1
6,138,CC(C)(C)OC(=O)CCc1ccnc(-c2nc(=O)c3ccc(F)cc3s2)c1
7,93 to 94,O=C(NCCCCCCOC(=O)N1CCC(OC(=O)Oc2ccc([N+](=O)[O-])cc2)CC1)Oc1ccc(Oc2ccccc2)cc1
8,105,COCCOc1ccc2c(c1)n(C1CCCCC1)c(=O)n2S(=O)(=O)c1ccc(C(=O)O)cc1OC
9,201 to 207,Cc1cnc(NCCc2ccccn2)c(=O)n1NC(=O)CCc1cccc(Cl)c1
10,95 to 97,Cc1cn([C@H]2CC(N=[N+]=[N-])[C@@H](COC(=O)C(C)(C)CC(=O)N[C@@H](Cc3ccccc3)[C@H](O)C(=O)N3CSC(C)(C)[C@H]3C(=O)NC(C)(C)C)O2)c(=O)[nH]c1=O (stereo partly drawn)
11,91 to 92,CCCc1nn(-c2ccc(C(F)(F)F)cn2)cc1CCCCOc1ccc(CCC(=O)O)c(OC)c1
12,110,CC(C)Oc1ccc(-c2nc(=O)c3ccccc3s2)cn1
13,130 to 133,CCN(CC)CC(O)CNC(=O)c1c(OC(=O)c2ccccc2)c2ccccc2n1-c1ccccc1 (stereo not drawn)
14,103 to 105,O=C(Nc1ccc(CCN2C(=O)C3CCCC3=Nc3ccccc32)cc1)OCc1ccccc1 (stereo not drawn)
15,132 to 133,Cc1cccc(COc2cccc(OCc3ccc(C(C)C)cc3)c2)c1C(=O)O
16,151,NC(=O)N(O)Cc1cccc(C(O)C#Cc2ccsc2)c1 (stereo not drawn)
17,143 to 145,O=C(NCCO)/C(=C/c1ccc(Cl)cc1)NC(=O)c1ccc(OCCC2CC2)cc1
18,130 to 133,Cc1ccc(OC(C(=O)OC2CC(O)C=C3C=CC(C)C(CCC4CC(O)CC(=O)O4)C32)c2ccccc2)cc1 (mixture of isomers)
19,105 to 125,O=C(NC[C@H]1CN(c2ccc3c(c2)CCCc2cn[nH]c2-3)C(=O)O1)c1ccccc1
20,222,CN(C)c1nc(=O)[nH]n1C
21,106,CC(=O)c1cccc2cc3ccccc3cc12
22,260 to 262,COc1cc2c(cc1OC)-c1cc(=O)n(C)c(=O)n1CC2

row,melting point [°C],Compound
1,70 to 75,C=CC[C@H]1C(=O)N(S(=O)(=O)c2cccc(S(=O)(=O)N(C)C)c2)[C@H]2CCN(C(=O)OCc3ccccc3)[C@H]12 (relative stereo)
2,243 to 244,COC(=O)Cn1nnc(NC(=O)C2c3ccccc3Oc3ccccc32)n1
3,68,CC12CCC(C1)C1(C)Oc3ccccc3C21C (stereo not drawn)
4,120 to 123,O=C(CN1CC(c2ccc(F)cc2)CC1=O)ON1C(=O)CCC1=O (stereo not drawn)
5,165 to 166,CCCCCCCC(=O)OCC(COC(=O)CCCCCCC)OCn1cnc2c(=O)[nH]c(N)nc21
6,251 to 252,CC(=O)c1ccc(NC(=O)Nc2cc(C(C)=O)cc(C(C)=O)c2)cc1
7,166 to 168,CC1CN(c2ccc(F)cc2)N=C1NC=O (stereo not drawn)
8,204,CC(C)N1CCc2[nH]c3ccc4scc(-c5ccccc5)c4c3c2C1
9,157 to 160,COc1cc(OC)c(NC(=O)CC(C#N)c2ccccc2)c(OC)c1 (stereo not drawn)
10,88 to 90,CCC(=CC=C(C#N)C#N)NCCO
11,97 to 99,CC(C)C(=O)OC1C(n2ccc(N)nc2=O)OC(COC(=O)c2ccc(Cl)cc2)C1(C#C[Si](C)(C)C)OC(=O)C(C)C (stereo not drawn)
12,169 to 171,C1=CNc2c(ccc3ncccc23)C=N1
13,117 to 118,O=c1ccc(-c2c(-c3ccccc3)nn3ccccc23)nn1C1CCCC(O)C1 (stereo not drawn)
14,91 to 92,CCOP(=O)(Cc1ccccc1CN1C(=O)c2ccccc2C1=O)OCC
15,96 to 98,COC(=O)C(C)(C)OCc1cc2cc(Cl)ccc2n1S(=O)(=O)c1ccc(OC)cc1
16,79.5 to 82.4,CSc1ncc2c(n1)N(c1ccccc1)C(=O)N(c1ccccc1Cl)C2
17,152 to 154,Oc1ccc2ccc(OCc3ccccc3)cc2c1
18,94 to 96,COC(=O)OCC1OC(n2cc(C)c(=O)[nH]c2=O)C(OC(=O)c2cccc(C(F)(F)F)c2)C1OS(C)(=O)=O (stereo not drawn)
19,59 to 61,O=C(CC1CCCC1=O)c1ccc(Br)cc1 (stereo not drawn)
20,158 to 161,CN1C(=O)N(CCN2C(=O)N(C)C(O)C2O)C(O)C1O (stereo not drawn)
21,234 to 236,CCC(CC)c1ccc(Cl)c2nc3n(c12)CCN3C(=O)c1c(C)cc(C)cc1C
22,250 to 260,Cc1ccc(F)cc1C(=O)Nc1ccc(C(=O)N2Cc3ccnn3Cc3ccccc32)cn1

row,melting point [°C],Compound
1,43 to 44,CCCCCCCC(CC(=O)O)CC(=O)O
2,160 to 163,COc1ccc(-c2cc(C)cn2-c2ccc(S(N)(=O)=O)cc2)cc1Cl
3,112,Cc1c(Cl)cccc1S(=O)(=O)Nc1ccc2oncc2c1
4,142 to 143,C=CCOc1ccc(OC(C)=O)c2ccc(=O)[nH]c12
5,78 to 79,COc1ccc(/C(C)=C/c2ccncc2)cc1OC1CCCC1
6,188 to 190,CCCSC(Cn1ccnc1)(SCCC)c1ccc2ccccc2c1
7,224,CCCCc1cn(Cc2ccc(C(=O)O)cc2)c2ccccc2c1=O
8,133,Cc1cccc(-c2nc(Cl)cc(-c3ccccc3Cl)n2)n1
9,131 to 132,Clc1nc2cc3c(cc2s1)OCO3
10,256 to 258,O=CCNc1[nH]c(-c2ccc(F)cc2)nc1-c1ccccc1
11,193 to 195,O=C(NNS(=O)(=O)c1ccc([N+](=O)[O-])cc1)c1ccccc1
12,127 to 129,CC(c1ccc(F)cc1)N(O)C(N)=O (stereo not drawn)
13,130 to 132,CCCCc1oc2ccccc2c1C(Sc1nc2ccccc2s1)c1ccc(-c2ccc(O)cc2)cc1 (stereo not drawn)
14,265 to 266,CC1(N2C(=O)c3cccc([N+](=O)[O-])c3C2=O)CCC(=O)NC1=O (stereo not drawn)
15,248 to 250,Fc1ccc2nc(S)oc2c1
16,158,O=C(NOCCNc1ccccc1)c1ccc(F)c(F)c1Nc1ccc(I)cc1Cl
17,115 to 117,O=C1NC(=O)C(F)(c2ccccc2)CO1 (stereo not drawn)
18,48 to 50,CCCCCCCCCCCCCCC(CCCCC(=O)O)CCCCC(=O)O
19,251 to 253,CCCCCCCCCCCCCCCCN1CCN(c2ccc(C=CC(=O)O)cc2)CC1
20,131 to 132,COc1cc(COc2nn(-c3ccc(C(F)(F)F)cc3)cc2/C=C/C(=O)OCOC(=O)C(C)(C)C)ccc1OCc1nc(-c2ccccc2)oc1C
21,203 to 204,COc1ccc(N2CCOCC2)c2sc(-c3nc4c([nH]3)COCC4)nc12

row,Compound,melting point [°C]
1,NC(=O)NC(=O)NCc1ccc(CNC(=O)[C@@H](CCCNC(N)=N[N+](=O)[O-])NC(=O)C(c2ccccc2)c2ccccc2)cc1,214 to 218
2,CC#CC1(O)CCC2C3CCC4=CC(=O)CCC4C3C(=CF)CC21C (stereo not drawn),148
3,N#Cc1c(F)cc(OCCOc2ccc3ccccc3c2)cc1F,148 to 149

# From a melting point compilation (Tetko et al.; mined from patent text by program, amines drawn as free bases though some values may be those of a salt)
